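Interpolation was linear, between the two tested concentrations surrounding the appropriate level; five concentrations were tested over 48 hours in 96-well plates. GI50 is the concentration that inhibits growth by half. TGI: concentration producing complete growth inhibition.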
Legend:
Experiment in all cases: inhibition of tumour cell growth, NCI panel, 48 h
[1] = test system: RXF 393 renal
[2] = test system: ACHN renal
[3] = test system: A498 renal
[4] = test system: UACC-62 melanoma
[5] = test system: MOLT-4 leukemia
[6] = test system: EKVX NSCLC
[7] = test system: DU-145 prostate
[8] = test system: A549 NSCLC
[9] = test system: HOP-92 NSCLC
[10] = test system: HT29 colon

Row | SMILES | GI50 [1] | TGI [1] | GI50 [2] | TGI [2] | GI50 [3] | TGI [3] | GI50 [4] | TGI [4] | GI50 [5] | TGI [5] | GI50 [6] | TGI [6] | GI50 [7] | TGI [7] | GI50 [8] | TGI [8] | GI50 [9] | TGI [9] | GI50 [10] | TGI [10]
1 | COc1ccccc1N1CCN(C(=O)c2ccc(NS(=O)(=O)c3cccc4cccnc34)cc2)CC1 | 5.02 µM | 59.4 µM | > 71 µM | > 100 µM | > 47.6 µM | > 100 µM | > 100 µM | > 100 µM | > 100 µM | > 100 µM | > 100 µM | > 100 µM | > 100 µM | > 100 µM | > 100 µM | > 100 µM | > 100 µM | > 100 µM | > 100 µM | > 100 µM
2 | CNC(=O)c1cncc(/C=C/c2c(C)cccc2C)c1 | 13.4 µM | > 25 µM | 16.3 µM | > 25 µM | 8.95 µM | > 25 µM | > 22.5 µM | > 25 µM | > 25 µM | > 25 µM | > 25 µM | > 25 µM | > 25 µM | > 25 µM | > 25 µM | > 25 µM | 3.34 µM | 22.9 µM | 16.2 µM | > 25 µM
3 | COc1cc([C@@H]2c3cc4c(cc3[C@H](OC(C)=O)[C@H]3COC(=O)[C@H]23)OCO4)cc(OC)c1OC | 0.0691 µM | > 100 µM | 0.044 µM | > 100 µM | 0.0139 µM | 0.065 µM | 0.0598 µM | > 100 µM | 0.0385 µM | > 100 µM | 0.0568 µM | > 100 µM | 0.0412 µM | > 100 µM | 0.0349 µM | > 100 µM | 0.0254 µM | 4.94 µM | 0.0335 µM | 17.9 µM
4 | O=C1c2cccc3cc([N+](=O)[O-])cc(c23)C(=O)N1CCN1CCCC1 | 0.839 µM | 3.01 µM | 0.193 µM | 0.706 µM | 0.319 µM | 1.65 µM | 0.322 µM | 1.71 µM | 0.237 µM | > 100 µM | 1.47 µM | 5.7 µM | 0.286 µM | 1.24 µM | 0.242 µM | 1.69 µM | 0.355 µM | 2.79 µM | 0.593 µM | 7.6 µM
5 | CC(=O)Nc1ccc2oc(=O)c3ccccc3c2c1 | – | > 100 µM | – | > 100 µM | – | > 100 µM | – | > 100 µM | – | > 100 µM | – | > 100 µM | – | > 100 µM | – | > 100 µM | – | > 100 µM | – | > 100 µM

Reference: PubChem BioAssay (NCI)
